# Where a name gives a salt, the structure may show the parent alone.
# What was measured:
# systolic blood pressure = assay: Antihypertensive activity, reduction in systolic blood pressure, single oral medication, unanesthetized spontaneous hypertensive rat; type: in vivo; details: P.O.; for Antihypertensive activity SH Rat AHD40 (single oral dose required to induce a 40 mm. average reduction in systolic blood pressure): unanesthetized SH rat
# Method: Antihypertensive activity was determined on the basis of the observed reduction in systolic blood pressure measured according to the method of H. Kersten et al., J. Lab. and Clin. Med. 32, 1090 (1947) following a single oral medication in the unanesthetized spontaneous hypertensive rat described by Okamato et al., Japan Circulation J. 27, 282 (1963).
# ^a AHD40 = single oral dose required to induce a 40 mm. average
# [1] = system: isolated rabbit ear artery; assay: Vasodilator activity, perfusion pressure in isolated rabbit ear artery
# Excerpt: Vasodilator activity was judged on the basis of observed reduction in perfusion pressure in the hind limb vasculature of the anesthetized dog determined according to the procedure described by Jandhyala et al., European J. Pharm. 17, 357 (1972), and also on the basis of percent reduction in perfusion pressure as measured in the isolated rabbit ear artery according to the method described by De LaLande et al., Aust. J. Exp. Biol. Med. Sci. 43, 639 (1965).
# ^d Vasodilation is expressed as the percentage reduction in perfusion
# β-adrenergic = β-adrenergic blocking activity, inhibition of isoproterenol-elicited heart rate increase in pentobarbitalized dog; type: in vivo; details: i.v.; for Dog β-blockade AED50 (approximate intravenous dose for 50% inhibition of isoproterenol-elicited heart rate increase): pentobarbitalized dog
# Method: The β-adrenergic blocking activity was determined in the pentobarbitalized dog as judged by the ability of the test compound to inhibit the elevation in heart rate elicited by a 0.5 mcg./kg. i.v. injection of isoproterenol.
# ^e AED50 = approximate intravenous dose required to cause 50%
# blood pressure = assay: Antihypertensive activity, sustained lowering of blood pressure, repeated oral medication, unanesthetized trained renal hypertensive dog; type: in vivo
# Excerpt: Antihypertensive activity was also judged on the basis of sustained reduction of blood pressure observed in the unanesthetized trained renal hypertensive dog following repeated oral medication according to the procedure described by Lape et al., Arch.
# ^b MED10 = minimum repeated oral daily dose required to effect a
Compound,Antihypertensive activity SH Rat AHD40 (single oral dose required to induce a 40 mm. average reduction in systolic blood pressure) (systolic blood pressure) [mg/kg],Dog β-blockade AED50 (approximate intravenous dose for 50% inhibition of isoproterenol-elicited heart rate increase) (β-adrenergic),Actual reduction in blood pressure observed at the indicated dose (systolic blood pressure; 50 mg./kg.) [mm. Hg],also measured
"COc1ccc(CCC(C)NCC(O)c2ccc(O)c([S+](C)[O-])c2)cc1 (single isomer, unassigned) [Example 10, 4-hydroxy-α-<{[3-(4-methoxyphenyl)-1-methylpropyl]amino}methyl>-3-(methylsulfinyl)benzenemethanol hydrochloride]",,,,"Actual reduction in blood pressure observed at the indicated dose (systolic blood pressure; 16.0 mg./kg., hydrochloride): -17 mm. Hg; Antihypertensive activity SH Rat AHD40 (single oral dose required to induce a 40 mm. average reduction in systolic blood pressure) (systolic blood pressure; hydrochloride): > 16.0 mg/kg; Rabbit Ear Artery vasodilation (percentage reduction in perfusion pressure from control level) ([1]; 2 × 10^-4 M, 200 µM): 50%; Actual percentage inhibition of heart rate increase above control level observed at the indicated dose (β-adrenergic; 0.1 mg./kg.): 23%; Dog β-blockade AED50 (approximate intravenous dose for 50% inhibition of isoproterenol-elicited heart rate increase) (β-adrenergic; hydrochloride): > 0.10 mg/kg; Actual percentage reduction in blood pressure observed at the indicated dose (blood pressure; tid., 0.5 mg./kg., hydrochloride): 8%; Renal Hypertensive Dog MED10 (minimum repeated oral daily dose for sustained lowering of blood pressure of 10% or greater) (blood pressure; tid., hydrochloride): > 0.5 mg/kg"
"CC(CCc1ccc(O)cc1)NCC(O)c1ccc(O)c([S+](C)[O-])c1 (single isomer, unassigned) [Example 23C, 4-hydroxy-α-<{[4-(4-hydroxyphenyl)-1-methylpropyl]amino}methyl>-3-(methylsulfinyl)benzenemethanol cyclohexylsulfamate salt]",40.0,< 0.025 mg/kg,,Actual percentage inhibition of heart rate increase above control level observed at the indicated dose (β-adrenergic; 0.025 mg./kg.): 80%
"COc1ccc(CCC(C)NCCc2ccc(O)c([S+](C)[O-])c2)cc1 (single isomer, unassigned) [Example 29C, 4-<2-{[3-(4-methoxyphenyl)-1-methylpropyl]amino}ethyl>-2-(methylsulfinyl)phenol hydrochloride]",< 20,> 1.0 mg/kg,,Actual reduction in blood pressure observed at the indicated dose (systolic blood pressure; 20 mg./kg.): -54 mm. Hg; Actual percentage inhibition of heart rate increase above control level observed at the indicated dose (β-adrenergic; 1.0 mg./kg.): 43%; Renal Hypertensive Dog MED10 (minimum repeated oral daily dose for sustained lowering of blood pressure of 10% or greater) (blood pressure; administered once per day): > 40 mg/kg
"COc1ccc(CCC(C)NCC(O)c2ccc(O)c([S+](C)[O-])c2)cc1 (stereo not drawn) [Example 5F, 4-hydroxy-α-<{[3-(4-methoxyphenyl)-1-methylpropyl]amino}methyl>-3-(methylsulfinyl)benzenemethanol]",4.0,< 0.25 mg/kg,,"Rabbit Ear Artery vasodilation (percentage reduction in perfusion pressure from control level) ([1]; 5 × 10^-5 M, 50 µM): 50%; Actual percentage inhibition of heart rate increase above control level observed at the indicated dose (β-adrenergic; 0.25 mg./kg.): 70%"
"COc1ccc(CCC(C)NCC(O)c2ccc(O)c([S+](C)[O-])c2)cc1 (stereo not drawn) [Example 5G, 4-hydroxy-α-<{[3-(4-methoxyphenyl)-1-methylpropyl]amino}methyl>-3-(methylsulfinyl)benzenemethanol]",,,,"Rabbit Ear Artery vasodilation (percentage reduction in perfusion pressure from control level) ([1]; 1 × 10^-4 M, 100 µM): 71%"
"COc1ccc(CCC(C)NCC(=O)c2ccc(OC(=O)c3ccccc3)c([S+](C)[O-])c2)cc1Br (centres unmarked) [Example 7E, 4'-hydroxy-2-{[3-(3-bromo-4-methoxyphenyl)-1-methylpropyl]-amino}-3'-(methylsulfinyl)acetophenone 4'-benzoate hydrochloride]",30,> 1.0 mg/kg,,Actual percentage inhibition of heart rate increase above control level observed at the indicated dose (β-adrenergic; 1.0 mg./kg.): 12%; Renal Hypertensive Dog MED10 (minimum repeated oral daily dose for sustained lowering of blood pressure of 10% or greater) (blood pressure; administered once per day): ~.10 mg/kg
"COc1ccc(CCC(C)NCC(O)c2ccc(OC(=O)c3ccccc3)c([S+](C)[O-])c2)cc1 (stereo not drawn) [Example 8, 4-hydroxy-α-<{[3-(4-methoxyphenyl)-1-methylpropyl]amino}methyl>-3-(methylsulfinyl)benzenemethanol 4-benzoate hemi-sulfate]",9,,,
"COc1ccc(CC(C)NC(C)C(O)c2ccc(O)c([S+](C)[O-])c2)cc1 (stereo not drawn) [Example 15F, 4-hydroxy-α-<{1-[2-(4-methoxyphenyl)-1-methylethyl]amino}ethyl>-3-(methylsulfinyl)benzenemethanol acetate salt]",> 20.0,,,Actual reduction in blood pressure observed at the indicated dose (systolic blood pressure; 20 mg./kg.): -25 mm. Hg
"COc1ccc(CCCC(C)NCC(O)c2ccc(O)c([S+](C)[O-])c2)cc1 (stereo not drawn) [Example 21D, 4-hydroxy-α-<{[4-(4-methoxyphenyl)-1-methylbutyl]amino}methyl>-3-(methylsulfinyl)benzenemethanol acetate salt]",40.0,,,"Rabbit Ear Artery vasodilation (percentage reduction in perfusion pressure from control level) ([1]; 1 × 10^-3 M, 1000 µM): 50%"
"COc1ccc(CCCC(C)(C)NCC(O)c2ccc(O)c([S+](C)[O-])c2)cc1 (stereo not drawn) [Example 22D, 4-hydroxy-α-<{[4-(4-methoxyphenyl)-1,1-dimethylbutyl]amino}methyl>-3-(methylsulfinyl)benzenemethanol]",> 50.0,,-12,
"COc1ccc(CCC(C)NCC(O)c2ccc(O)c([S+](C)[O-])c2)cc1 (centres unmarked) [Example 24C, hydrochloride]",,,-12,Antihypertensive activity SH Rat AHD40 (single oral dose required to induce a 40 mm. average reduction in systolic blood pressure) (systolic blood pressure; hydrochloride): > 50 mg/kg; Dog β-blockade AED50 (approximate intravenous dose for 50% inhibition of isoproterenol-elicited heart rate increase) (β-adrenergic; hydrochloride): ca. 0.50 mg./kg.
"COc1ccc(CCC(C)NCC(=O)c2ccc(OC(=O)c3ccccc3)c([S+](C)[O-])c2)cc1 (centres unmarked) [Example 25, 4'-hydroxy-2-{[3-(4-methoxyphenyl)-1-methylpropyl]amino}-3'-(methylsulfinyl)acetophenone 4'-benzoate hydrochloride]",> 50,,-12,
"COc1ccc(CCNCC(O)c2ccc(O)c([S+](C)[O-])c2)cc1OC (stereo not drawn) [Example 27C, α-<{[2-(3,4-dimethoxyphenyl)ethyl]amino}-methyl>-4-hydroxy-3-(methylsulfinyl)benzenemethanol hydrochloride]",> 50,ca. 0.10 mg./kg.,-26,
"COc1cc(CCNCC(O)c2ccc(O)c([S+](C)[O-])c2)cc(OC)c1OC (stereo not drawn) [Example 28C, 4-hydroxy-3-(methylsulfinyl)-α-<{[2-(3,4,5-trimethoxyphenyl)ethyl]-amino}methyl>benzenemethanol hydrochloride]",> 50,,-15,
"CC(CCc1ccc2c(c1)OCO2)NCC(O)c1ccc(O)c([S+](C)[O-])c1 (stereo not drawn) [Example 31C, 4-hydroxy-α-<{[3-(3,4-methylenedioxyphenyl)-1-methylpropyl]amino}methyl>-3-(methylsulfinyl)benzenemethanol hydrochloride]",< 50,< 0.025 mg/kg,-54,Actual percentage inhibition of heart rate increase above control level observed at the indicated dose (β-adrenergic; 0.025 mg./kg.): 60%
"CCOCCOc1ccc(C(O)CNC(C)CCc2ccc(OC)cc2)cc1[S+](C)[O-] (stereo not drawn) [Example 32E, 4-[2-(ethoxy)ethoxy]-α-<{[3-(4-methoxyphenyl)-1-methylpropyl]amino}methyl>-3-(methylsulfinyl)benzenemethanol hydrochloride]",> 150,,,
"CC(CCc1ccccc1)NCCc1ccc(O)c([S+](C)[O-])c1 (centres unmarked) [Example 33C, 4-<2-{[1-methyl-3-phenylpropyl]amino}ethyl>-2-(methylsulfinyl)phenolhydrochloride]",> 50,1.0 mg/kg,-28,
"C[S+]([O-])c1cc(CCNC(C)(C)CCc2ccccc2)ccc1O.Cl (centres unmarked) [Example 35C, 4-{2-[(1,1-dimethyl-3-phenylpropyl)amino]ethyl}-2-(methylsulfinyl)phenol hydrochloride]",> 50,0.6 mg/kg,-20,
"COc1ccc(CCC(C)NCCc2ccc(O)c([S+](C)[O-])c2)cc1 (centres unmarked) [Example 36C, 4-<2-{[3-(4-methoxyphenyl)-1-methylpropyl]amino}ethyl>-2-(methylsulfinyl)phenol hydrochloride]",> 150,,,"Actual reduction in blood pressure observed at the indicated dose (systolic blood pressure; 150 mg./kg., hydrochloride): -28 mm. Hg"
"COc1ccc(CCC(C)NCCc2ccc(O)c([S+](C)[O-])c2)cc1 (centres unmarked) [Example 37C, 4-<2-{[3-(4-methoxyphenyl)-1-methylpropyl]amino}ethyl>-2-(methylsulfinyl)phenol hydrochloride]",> 150,,,"Actual reduction in blood pressure observed at the indicated dose (systolic blood pressure; 150 mg./kg., hydrochloride): -21 mm. Hg"

# — US4374149A, “α-{[(Arylalkyl)amino]alkyl}-4-hydroxy-3-(lower-alkylsul finyl)benzenemethanols” (Sterling Drug Inc., priority 1978, dated 1983)
